Assay results taken from patent publication US4060526A, “1-Heterocyclic alkyl-1,2,3,4-tetrahydroquinazolinones and analgesic intermediates thereof” (priority 1976, dated 1977).
Read-outs that look alike come from different tables or passages of the source.

How the values were obtained:
[1] = test system: oxymorphone induced mydriasis; test: antagonism of oxymorphone induced mydriasis; assay type: in vivo, mice; conditions: mice; words
Protocol: (§1) The compounds of this invention were tested for their ability to antagonize narcotic analgesics by two different tests. […] Another test used for narcotic antagonist activity was published by Harris & Pearson. This test is modification of the D'Amour & Smith method.

heat stimulus [2] = test: mouse hot plate test (Eddy and Leimbach, modified); conditions: Mus musculus, read-out: Hot Plate ED50
in vivo [3] = conditions: mouse
[4] = test system: phenylbenzoquinone writhing; test: phenylbenzoquinone writhing test, mouse; assay type: in vivo; conditions: po; Mouse p.o.
Protocol: (§3) In addition to the hot plate method, the writhing test described by Sigmund et al., Soc. Exp. Biol. and Med. 95:729 (1957) has been applied in both rats and mice as further indication of analgesics. […] The stimulus of intraperitoneal injection of phenylbenzoquinone results in a writhing syndrome characterized by periodic twisting and stretching of the body with extension of the hind legs. […] The dose of compound protecting 50% of the animals is determined and expressed as the ED50. Ten animals are used at each dose level.

[5] = phenylbenzoquinone writhing test, mouse; assay type: in vivo; conditions: mouse, in vivo, po, Mouse p.o.
Protocol: as §3

in vivo [6] = conditions: mouse; remark: listed apart in the source
in vivo [7] = test: in vivo
NARCOTIC ANTAGONISM = test: narcotic antagonism (Table IV); assay type: in vivo; conditions: I.P.
Protocol: as §1
(§2) In the original method the time required for rats to flick their tails following application of a heat stimulus is taken as a measure of analgesic potency.

sciatic nerve = test: local anesthesia, sciatic block; assay type: in vivo, mice; conditions: Pos. = blockade took place and leg and foot returned to normal after a time
Text: An effective local anesthetic causes a blockade of the nerves of the lower leg and foot causing the animal, when permitted to walk, to do so flatfooted, rather than its normal habit, up on its toes. Alternatively an effective local anesthetic, by the sciatic block method, can cause the leg to be dragged by the animal when walking so long as effective sciatic block persists. Toxic agents may effect the same apparent results, but the blockade effected by toxic agents is irreversible. However, in contrast to toxic agents, an effective local anesthetic permits recovery of the use of the leg and foot after a period of time.
The mice used in the sciatic block test were placed in a holder with their hind limbs extended. A quantity of the test compound (e.g. 0.05 ml) was injected into the area surrounding the sciatic nerve at the juncture of the two major leg muscles. Effective local anesthetic activity is indicated in Table IV ("Pos." --meaning that the blockade did take place and that the leg and foot returned to normal after a time.)

MOUSE TAIL STIMULATION = test: mouse tail stimulation analgesia; conditions: for ED50: Mus musculus, sc, read-out: MOUSE TAIL STIMULATION ED50
heat stimulus [8] = test: D'Amour Smith Rat Tail Flick; assay type: in vivo; conditions: Sub. cut.
Text: as §2

Row | Compound | LD50 (in vivo [7]; ip) | NOAEL (in vivo [7]; ip) | NARCOTIC ANTAGONISM (NARCOTIC ANTAGONISM) | LOCAL ANESTHESIA SCIATIC BLOCK (sciatic nerve) | also measured
1 | COc1ccc2c3c1O[C@H]1[C@@H](O)C=C[C@H]4[C@@H](C2)N(C)CC[C@@]341 [Codeine, reference compound] |  |  |  |  | effect of narcotic agents on pupil size [1]: no change or an increase in the pupil size; ED50 (heat stimulus [2]; ip): 12 mg/kg; ED50 (heat stimulus [2]; po): 20 mg/kg; LD50 at 48 h (in vivo [3]; ip): 104 mg/kg; LD50 at 48 h (in vivo [3]; po): 540 mg/kg; ED50 [4]: 17 mg/kg; selectivity ratio ([5]; HNSD = highest dose without gross symptoms, read-out: HNSD./ED50 Writhing): 5.9; selectivity ratio ([5]; read-out: LD50 /ED50 Writhing): 32; selectivity ratio (in vivo [6]; ip, HNSD./ED50 H.P., Mouse i.p., HNSD = highest dose without gross symptoms): 2.6; selectivity ratio (in vivo [6]; ip, LD50 /ED50 H.P., Mouse i.p.): 8.7; selectivity ratio (in vivo [6]; po, HNSD./ED50 H.P., Mouse p.o., HNSD = highest dose without gross symptoms): 5; selectivity ratio (in vivo [6]; po, LD50 /ED50 H.P., Mouse p.o.): 27
2 | Cl.Cl.Cl.NC(=O)c1ccccc1NCCN1CCN(Cc2ccccc2)CC1 [Example XX, 2-(2-[4-Benzyl-1-piperazinyl]ethylamino)benzamide trihydrochloride] | 100 mg/kg | 10 mg/kg | Positive |  | 
3 | CS(=O)(=O)O.O=C1NC(c2ccccc2)N(CCN2CCC(O)(c3ccccc3)CC2)c2ccccc21 (stereo not shown) [Example XXVI, 1-[2-(4-Hydroxy-4-phenylpiperidino)ethyl]-2-phenyl-1,2,3,4-tetrahydro-4-quinazolinone Methanesulfonate] | 200 mg/kg | 3 mg/kg | Negative | Positive | 
4 | NC(=O)c1ccccc1N(CCN1CCC(O)(c2ccccc2)CC1)Cc1ccccc1 [Example XXVII (Step 4 Title Compound), 2-[Benzyl-(2-[4-hydroxy-4-phenylpiperidyl]ethyl)amino]benzamide] | 60 mg/kg | 10 mg/kg |  |  | 
5 | CCC(=O)OC1(c2ccccc2)CCN(CCN(Cc2ccccc2)c2ccccc2C(N)=O)CC1 [Example XXVII (Step 5 Title Compound)] | 100 mg/kg | 3 mg/kg | Negative |  | 
6 | CCC(=O)OC1(c2ccccc2)CCN(CCNc2ccccc2C(N)=O)CC1 [Example XXVII, 2-[2-(4-propionoxy-4-phenylpiperidyl)ethylamino]benzamide] | 60 mg/kg | 0.1 mg/kg |  |  | ED50 (MOUSE TAIL STIMULATION): 0.03 mg/kg
7 | CCOC(=O)C1(c2ccccc2)CCN(C)CC1 [Merperidine, reference compound] | 130 mg/kg | 30 mg/kg | Negative | Positive | ED50 (MOUSE TAIL STIMULATION): 1.8 mg/kg
8 | CN1CC[C@]23c4c5ccc(O)c4O[C@H]2[C@@H](O)C=C[C@H]3[C@H]1C5 [Morphine, reference compound] |  |  | Negative |  | MOUSE TAIL STIMULATION ED50 (MOUSE TAIL STIMULATION; S.C.): 1.5 mg/kg; Rat Tail Flick ED50 (heat stimulus [8]): 15 mg/kg
9 | CC(C)=CCN1CCC2(C)c3cc(O)ccc3CC1C2C (stereo not shown) [Pentazocine, reference compound] | 140 mg/kg | 30 mg/kg | Positive | Positive | 
10 | COc1ccc(N2CCN(CCNc3ccccc3C(N)=O)CC2)cc1 [VII, 2-[2-(1-[p-Methoxyphenyl]-4-piperazinyl)ethylamino] benzamide] | 300 mg/kg | 3 mg/kg | Positive | Positive | 
11 | COC(=O)c1ccccc1NCCN1CCN(c2ccccc2)CC1 [XII, Methyl 2-[2-(1-phenyl-4-piperazinyl)ethylamino]benzoate] | 300 mg/kg | 300 mg/kg | Negative | Positive | 
12 | CC(CNc1ccccc1C(N)=O)N1CCN(c2ccccc2)CC1.Cl (stereo not shown) [XIV, 2-[2-(4-phenyl-1-piperazinyl)propylamino]benzamide hydrochloride] | 300 mg/kg | 10 mg/kg | Positive | Positive | 
13 | NC(=O)c1cc([N+](=O)[O-])ccc1NCCN1CCN(c2ccccc2)CC1 [XIX, 5-Nitro-2-(2-[4-phenyl-1-piperazinyl]ethylamino)benzamide] |  |  | Negative |  | LD50 (in vivo [7]; po): 300 mg/kg
14 | CNC(=O)c1ccccc1NCCN1CCN(c2ccccc2)CC1 [XV, 2-(2-[4-phenyl-1-piperazinyl]ethylamino)-N-methylbenzamide] | 200 mg/kg | 3 mg/kg | Positive | Positive | 
15 | Cl.O=C(c1ccccc1NCCN1CCN(c2ccccc2)CC1)N1CCOCC1 [XVI, N-(2-[2-(1-phenyl-4-piperazinyl)ethylamino]benzoyl) morpholine hydrochloride] | 250 mg/kg | 10 mg/kg | Positive |  | ED50 (MOUSE TAIL STIMULATION): 30 mg/kg
16 | Cl.NC(=O)c1ccccc1NCCN1CCN(CCc2ccccc2)CC1 [XVII, 2-[2-(4-phenethyl-1-piperazinyl)ethylamino]benzamide hydrochloride] | 70 mg/kg | 10 mg/kg | Negative | Positive | 
17 | COc1ccc(NCCN2CCN(c3ccccc3)CC2)c(C(N)=O)c1 [XVIII, 5-Methoxy-2-(2[4-phenyl-1-piperazinyl]ethylamino)benzamide] | 300 mg/kg | 1 mg/kg | Positive |  | 
18 | Cl.NC(=O)c1cc(N)ccc1NCCN1CCN(c2ccccc2)CC1 [XXI, 5-Amino-2-(2-[4-phenyl-1-piperazinyl]-ethylamino)benzamide hydrochloride] | 200 mg/kg | 10 mg/kg | Positive | Positive | 
19 | O=C(Nc1ccccc1)c1ccccc1NCCN1CCN(c2ccccc2)CC1 [XXII, 2-[2-(1-Phenyl-4-piperazinyl)ethylamino]-N-phenylbenzamide] | 300 mg/kg | 0.3 mg/kg | Positive | Negative | 
20 | CCOc1ccc(NCCN2CCN(c3ccccc3)CC2)c(C(N)=O)c1 [XXIV, 5-Ethoxy-2-(2-[4-phenyl-1-piperazinyl]ethylamino)benzamide] | 300 mg/kg | 30 mg/kg | Negative |  | 
21 | CCC(=O)OC1(c2ccccc2)CCN(CCNc2ccccc2C(=O)NC)CC1 [XXIX, 2-[2-(4-Propionoxy-4-phenylpiperidyl)ethylamino]-N-methyl-benzamide] |  |  |  |  | LD50 (in vivo [7]; po): 16 mg/kg
22 | CCC(=O)OC1(c2ccccc2)CCN(CCN(Cc2ccccc2)c2ccccc2C(=O)NC)CC1 [XXVIII, 2-[Benzyl-(2-[4-propionoxy-4-phenylpiperidyl]ethyl)amino]-N-methyl-benzamide] |  |  |  |  | LD50 (in vivo [7]; po): 250 mg/kg
23 | NC(=O)c1ccccc1NCCN1CCC(c2ccccc2)CC1 [XXX, 2-[2-(4-phenyl-1-piperidyl)ethylamino]benzamide] | 200 mg/kg | 10 mg/kg | Positive | Positive | 
24 | NC(=O)c1ccccc1NCCN1CCCCC1 [XXXI, 2-[N-β-(1-Piperidinoethyl)amino]benzamide] | 40 mg/kg | 10 mg/kg | Positive |  | 
25 | CC(CN1CCN(c2ccccc2)CC1)Nc1ccccc1C(N)=O (stereo not shown) [XXXII, 2-[1-methyl-2-(4-phenyl-1-piperazinyl)ethylamino]benzamide] | 300 mg/kg | 3 mg/kg | Negative |  | 
